Measured values reported in US20230241071A1, “COMBINATION TREATMENT OF LIVER DISORDERS” (Terns Pharmaceuticals, Inc., priority 2021, published 2023).

How the values were obtained:
THR-β = target: T1, THR-β (Homo sapiens, UniProt P10828); experiment: Binding activity to the thyroxine receptor beta; details: for THR-α/-β selectivity: ratio of binding IC50; for IC50: read-out: IC50 THR-β binding force
T1 sequence (P10828 1-461): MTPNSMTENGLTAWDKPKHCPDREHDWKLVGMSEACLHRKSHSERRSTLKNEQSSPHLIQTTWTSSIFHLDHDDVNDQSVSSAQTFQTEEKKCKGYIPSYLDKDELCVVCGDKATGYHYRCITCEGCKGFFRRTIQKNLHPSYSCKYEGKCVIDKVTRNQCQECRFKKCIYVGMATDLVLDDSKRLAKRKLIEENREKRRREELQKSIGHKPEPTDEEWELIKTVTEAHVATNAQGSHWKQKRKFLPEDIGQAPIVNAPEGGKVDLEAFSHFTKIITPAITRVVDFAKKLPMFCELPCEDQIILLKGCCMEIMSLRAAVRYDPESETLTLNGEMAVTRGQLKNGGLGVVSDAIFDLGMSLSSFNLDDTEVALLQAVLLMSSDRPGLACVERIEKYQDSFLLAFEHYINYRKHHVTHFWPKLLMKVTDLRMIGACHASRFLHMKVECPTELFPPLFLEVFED

[1] = Pharmacokinetic evaluation in SD rats; format: in vivo, rat; details: 2.0 mg/kg intragastric; for half-life: male, rat, plasma, po

Row | Curve area [1] [ng·h/mL] | Time to peak [1] [h] | half-life [1] [min] | Peak blood drug concentration [1] [ng/mL] | Compound | THR-α/-β selectivity (THR-β) [factor] | IC50 (THR-β) [nM]
1 | 9242 ± 1245 | 5.33 ± 1.15 | 308 ± 49.8 |  | CC1(C)CCc2c(Oc3c(Cl)cc(-n4cc(C#N)c(=O)[nH]c4=O)cc3Cl)n[nH]c(=O)c21 [Compound 6] |  | 
2 | 12854 ± 961 | 5.3 ± 1.15 | 212 ± 25.2 | 1163 ± 97.1 | CC(C)c1cc(Oc2c(Cl)cc(-n3nc(C#N)c(=O)[nH]c3=O)cc2Cl)n[nH]c1=O [Reference compound, 2-[3,5-Dichloro-4-(5-isopropyl-6-oxo-1,6-dihydropyridazin-3-yloxy)phenyl]-3,5-dioxo-2,3,4,5-tetrahydro[1,2,4]triazine-6-carbonitrile, reference compound] |  | 

The remaining lines, values behind:

Row | Compound | Curve area [1] [ng·h/mL] | Time to peak [1] [h] | half-life [1] [min] | Peak blood drug concentration [1] [ng/mL] | THR-α/-β selectivity (THR-β) [factor] | IC50 (THR-β) [nM]
3 | N#Cc1nn(-c2cc(Cl)c(Oc3n[nH]c(=O)c4c3CCCC4)c(Cl)c2)c(=O)[nH]c1=O [Compound 3] |  |  |  |  | >8.1 | 1230
4 | N#Cc1nn(-c2cc(Cl)c(Oc3n[nH]c(=O)c4c(Cl)cccc34)c(Cl)c2)c(=O)[nH]c1=O [Compound 7] |  |  |  |  | >6.80 | 1470
5 | O=c1cnn(-c2cc(Cl)c(Oc3n[nH]c(=O)c4ccccc34)c(Cl)c2)c(=O)[nH]1 [Compound 11] |  |  |  |  |  | 262
